This is an account of results in US10335503B2, “Compound that specifically binds to AMPA receptor” (Public University Corporation Yokohama City University, priority 2015, dated 2019).

Common to all, as to settings: Positive substance, concentration not given
The target in one experiment is Serotonin transporter (Homo sapiens, UniProt P31645). Kind of experiment: Receptor binding panel: Serotonin transporter.
The target in a further experiment is α2A-Adrenergic (Homo sapiens, UniProt P08913). Kind of experiment: Receptor binding panel: α2A-Adrenergic.
The target of a further experiment is α2C-Adrenergic (Homo sapiens, UniProt P18825). Kind of experiment: Receptor binding panel: α2C-Adrenergic.
Another experiment addresses Histamine H3 (Homo sapiens, UniProt Q9Y5N1). Kind of experiment: Receptor binding panel: Histamine H3.
For a further experiment, the system named is Nicotinic. Kind of experiment: Receptor binding panel: Nicotinic. On the set-up: species or system Human.
A further experiment deals with Melatonin MT1 (Homo sapiens, UniProt P48039). Kind of experiment: Receptor binding panel: Melatonin MT1.
In experiment [1] the test system is Glutamate (NMDA glycine site). Kind of experiment: Receptor binding panel: Glutamate (NMDA glycine site).
The next experiment concerns Estrogen. Kind of experiment: Receptor binding panel: Estrogen.
The target of the next experiment is Sigma σ1 (Homo sapiens, UniProt Q99720). Kind of experiment: Receptor binding panel: Sigma σ1.
The target of a further experiment is Histamine H2 (Homo sapiens, UniProt P25021). Kind of experiment: Receptor binding panel: Histamine H2.
The subject of another experiment is Glutamate (AMPA). Kind of experiment: Receptor binding panel: Glutamate (AMPA).
A further experiment addresses Neurokinin NK1 (Homo sapiens, UniProt P25103). Kind of experiment: Receptor binding panel: Neurokinin NK1.
For a further experiment, the system named is K Channel KATP. Kind of experiment: Receptor binding panel: K Channel KATP.
The subject of the next experiment is GABA A (Agonist site). Kind of experiment: Receptor binding panel: GABA A (Agonist site).
The next experiment deals with Dopamine D2 short (Homo sapiens, UniProt P14416). Kind of experiment: Receptor binding panel: Dopamine D2 short.
Experiment [2] deals with Glutamate (NMDA phencyclidine site). Kind of experiment: Receptor binding panel: Glutamate (NMDA phencyclidine site).
Experiment [3] deals with Glutamate (NMDA agonist site). Kind of experiment: Receptor binding panel: Glutamate (NMDA agonist site).
A further experiment addresses Sigma σ2 (Homo sapiens, UniProt Q5BJF2). Kind of experiment: Receptor binding panel: Sigma σ2.
In the next experiment the target is Serotonin 5HT3 (Homo sapiens, UniProt P46098). Kind of experiment: Receptor binding panel: Serotonin 5HT3.
The target in another experiment is T1, CRF1 (Homo sapiens, UniProt P34998).
T1 sequence (P34998 24-415): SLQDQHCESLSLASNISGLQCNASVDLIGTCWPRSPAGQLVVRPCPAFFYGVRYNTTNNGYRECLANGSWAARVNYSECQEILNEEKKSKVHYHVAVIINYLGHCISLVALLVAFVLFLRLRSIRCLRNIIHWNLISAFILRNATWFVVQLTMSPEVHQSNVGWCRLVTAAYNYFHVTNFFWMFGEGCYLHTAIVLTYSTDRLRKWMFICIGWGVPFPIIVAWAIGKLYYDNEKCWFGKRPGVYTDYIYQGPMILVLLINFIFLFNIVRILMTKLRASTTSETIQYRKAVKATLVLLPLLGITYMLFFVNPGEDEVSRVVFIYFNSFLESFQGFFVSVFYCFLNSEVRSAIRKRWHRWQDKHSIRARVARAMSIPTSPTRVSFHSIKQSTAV
Kind of experiment: Receptor binding panel: CRF1.

In the next experiment the target is Opiate δ (Homo sapiens, UniProt P41143). Kind of experiment: Receptor binding panel: Opiate δ.
The next experiment deals with GABA A (BZ central). Kind of experiment: Receptor binding panel: GABA A (BZ central).
The target in a further experiment is Serotonin 5HT2A (Homo sapiens, UniProt P28223). Kind of experiment: Receptor binding panel: Serotonin 5HT2A.
Another experiment concerns Leukotriene B4. Kind of experiment: Receptor binding panel: Leukotriene B4.
The subject of another experiment is Glutamate (Kainate). Kind of experiment: Receptor binding panel: Glutamate (Kainate).
In a further experiment the test system is Leukotriene D4. Kind of experiment: Receptor binding panel: Leukotriene D4.
A further experiment deals with Neurokinin NK3 (Homo sapiens, UniProt P29371). Kind of experiment: Receptor binding panel: Neurokinin NK3.
The next experiment has as its system Na channel site 2. Kind of experiment: Receptor binding panel: Na channel site 2.

*1 amine or outer side, *2 acyl side, *3 side chain or, on linkers, in order; H or OH if unused. Where a SMILES comes first, the peptide text is derived from it. Where no end group is shown, it is not given here. [ ]: non-standard residue; d: D form. NMeF = CN[C@@H](Cc1ccccc1)C(=O)O; Suc = O=C(CCC(=O)[*:2])[*:1]

Neurokinin NK1, sequence (P25103 whole entry): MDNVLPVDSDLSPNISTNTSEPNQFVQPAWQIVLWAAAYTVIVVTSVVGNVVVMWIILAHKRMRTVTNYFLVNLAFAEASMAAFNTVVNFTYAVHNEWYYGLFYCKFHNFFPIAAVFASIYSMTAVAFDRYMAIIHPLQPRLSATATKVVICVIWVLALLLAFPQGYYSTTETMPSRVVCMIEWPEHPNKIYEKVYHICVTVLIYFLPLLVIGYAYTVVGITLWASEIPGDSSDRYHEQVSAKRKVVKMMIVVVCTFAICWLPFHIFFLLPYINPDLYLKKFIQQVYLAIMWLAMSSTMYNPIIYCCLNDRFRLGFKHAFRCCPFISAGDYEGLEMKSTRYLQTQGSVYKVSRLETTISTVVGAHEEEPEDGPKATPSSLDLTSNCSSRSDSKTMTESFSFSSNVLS
Sigma σ2, sequence (Q5BJF2 whole entry): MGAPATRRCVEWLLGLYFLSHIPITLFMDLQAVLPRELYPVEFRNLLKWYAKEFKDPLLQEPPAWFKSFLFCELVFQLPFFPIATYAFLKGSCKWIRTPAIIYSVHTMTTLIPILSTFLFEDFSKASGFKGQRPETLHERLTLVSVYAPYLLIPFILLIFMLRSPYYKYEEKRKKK
Serotonin 5HT2A, sequence (P28223 whole entry): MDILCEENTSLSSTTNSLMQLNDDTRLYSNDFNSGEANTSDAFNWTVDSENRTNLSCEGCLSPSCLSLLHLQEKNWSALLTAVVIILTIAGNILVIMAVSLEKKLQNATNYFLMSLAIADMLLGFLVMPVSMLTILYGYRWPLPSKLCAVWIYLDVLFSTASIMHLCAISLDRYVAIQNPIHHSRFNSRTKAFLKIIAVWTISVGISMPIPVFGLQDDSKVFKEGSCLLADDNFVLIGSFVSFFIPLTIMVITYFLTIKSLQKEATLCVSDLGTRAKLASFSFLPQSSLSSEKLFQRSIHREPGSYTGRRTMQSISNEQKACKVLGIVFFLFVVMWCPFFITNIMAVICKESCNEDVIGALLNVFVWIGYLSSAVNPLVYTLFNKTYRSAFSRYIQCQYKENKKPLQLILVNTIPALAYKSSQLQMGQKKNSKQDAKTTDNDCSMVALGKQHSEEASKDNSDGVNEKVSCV
Sigma σ1, sequence (Q99720 whole entry): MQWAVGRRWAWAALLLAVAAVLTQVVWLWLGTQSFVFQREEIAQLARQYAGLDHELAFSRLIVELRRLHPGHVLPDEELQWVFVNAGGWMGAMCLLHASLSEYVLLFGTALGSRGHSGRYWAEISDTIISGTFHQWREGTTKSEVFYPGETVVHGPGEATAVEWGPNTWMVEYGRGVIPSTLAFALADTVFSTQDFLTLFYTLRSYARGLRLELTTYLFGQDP
Dopamine D2 short, sequence (P14416 1-414 isoform P14416-2): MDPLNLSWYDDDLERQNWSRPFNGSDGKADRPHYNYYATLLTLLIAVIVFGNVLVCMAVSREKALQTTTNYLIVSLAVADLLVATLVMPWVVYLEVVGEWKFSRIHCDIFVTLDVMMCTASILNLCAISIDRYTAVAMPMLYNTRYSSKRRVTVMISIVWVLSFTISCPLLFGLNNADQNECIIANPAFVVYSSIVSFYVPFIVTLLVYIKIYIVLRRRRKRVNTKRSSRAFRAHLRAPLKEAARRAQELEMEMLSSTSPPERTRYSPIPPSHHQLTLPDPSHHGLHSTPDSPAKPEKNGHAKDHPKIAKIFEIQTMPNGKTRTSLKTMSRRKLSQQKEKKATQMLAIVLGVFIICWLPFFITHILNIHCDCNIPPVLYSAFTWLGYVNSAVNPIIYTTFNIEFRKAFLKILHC
Histamine H2, sequence (P25021 whole entry): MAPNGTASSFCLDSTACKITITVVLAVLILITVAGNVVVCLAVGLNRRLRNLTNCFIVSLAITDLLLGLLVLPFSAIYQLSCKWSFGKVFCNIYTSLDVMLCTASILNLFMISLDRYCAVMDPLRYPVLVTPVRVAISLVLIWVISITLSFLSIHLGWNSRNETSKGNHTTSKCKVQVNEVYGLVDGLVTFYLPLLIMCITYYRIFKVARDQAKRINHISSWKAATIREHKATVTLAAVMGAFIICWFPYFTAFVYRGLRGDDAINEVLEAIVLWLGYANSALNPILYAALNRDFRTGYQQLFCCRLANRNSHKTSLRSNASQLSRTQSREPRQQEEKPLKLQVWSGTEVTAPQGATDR
Neurokinin NK3, sequence (P29371 whole entry): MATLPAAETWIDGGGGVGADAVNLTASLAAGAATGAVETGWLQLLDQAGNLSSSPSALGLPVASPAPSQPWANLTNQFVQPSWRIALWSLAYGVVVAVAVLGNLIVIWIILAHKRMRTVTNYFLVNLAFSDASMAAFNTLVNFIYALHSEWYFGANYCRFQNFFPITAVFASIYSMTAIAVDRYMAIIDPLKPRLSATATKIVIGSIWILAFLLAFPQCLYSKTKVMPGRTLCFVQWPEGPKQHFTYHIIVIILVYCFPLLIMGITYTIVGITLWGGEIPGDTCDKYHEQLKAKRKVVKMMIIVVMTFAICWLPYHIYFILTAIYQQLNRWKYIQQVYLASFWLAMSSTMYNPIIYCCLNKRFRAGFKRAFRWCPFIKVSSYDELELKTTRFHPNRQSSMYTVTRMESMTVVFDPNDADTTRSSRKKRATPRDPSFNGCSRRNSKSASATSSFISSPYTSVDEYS
Opiate δ, sequence (P41143 whole entry): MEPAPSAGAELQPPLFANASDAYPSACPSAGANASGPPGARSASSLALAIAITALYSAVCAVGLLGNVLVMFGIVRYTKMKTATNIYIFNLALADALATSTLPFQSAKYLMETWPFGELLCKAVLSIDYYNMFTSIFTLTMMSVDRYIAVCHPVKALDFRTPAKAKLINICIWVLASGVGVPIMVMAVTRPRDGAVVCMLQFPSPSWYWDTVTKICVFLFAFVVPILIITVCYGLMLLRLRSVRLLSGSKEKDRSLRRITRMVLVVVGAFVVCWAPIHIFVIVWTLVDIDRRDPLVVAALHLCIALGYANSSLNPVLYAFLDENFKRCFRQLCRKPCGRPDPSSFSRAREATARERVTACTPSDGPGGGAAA
α2C-Adrenergic, sequence (P18825 whole entry): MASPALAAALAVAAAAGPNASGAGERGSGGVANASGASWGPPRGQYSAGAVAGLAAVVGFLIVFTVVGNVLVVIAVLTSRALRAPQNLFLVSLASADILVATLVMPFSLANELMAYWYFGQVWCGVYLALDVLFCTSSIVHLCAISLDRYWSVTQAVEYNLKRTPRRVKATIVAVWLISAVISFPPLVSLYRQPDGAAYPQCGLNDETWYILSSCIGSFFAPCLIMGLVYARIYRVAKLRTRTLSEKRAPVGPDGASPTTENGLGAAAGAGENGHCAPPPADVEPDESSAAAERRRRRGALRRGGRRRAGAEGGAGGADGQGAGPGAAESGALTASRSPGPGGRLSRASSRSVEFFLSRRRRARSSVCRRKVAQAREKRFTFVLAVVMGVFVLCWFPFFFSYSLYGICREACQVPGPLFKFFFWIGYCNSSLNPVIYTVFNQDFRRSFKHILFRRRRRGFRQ
Serotonin transporter, sequence (P31645 whole entry): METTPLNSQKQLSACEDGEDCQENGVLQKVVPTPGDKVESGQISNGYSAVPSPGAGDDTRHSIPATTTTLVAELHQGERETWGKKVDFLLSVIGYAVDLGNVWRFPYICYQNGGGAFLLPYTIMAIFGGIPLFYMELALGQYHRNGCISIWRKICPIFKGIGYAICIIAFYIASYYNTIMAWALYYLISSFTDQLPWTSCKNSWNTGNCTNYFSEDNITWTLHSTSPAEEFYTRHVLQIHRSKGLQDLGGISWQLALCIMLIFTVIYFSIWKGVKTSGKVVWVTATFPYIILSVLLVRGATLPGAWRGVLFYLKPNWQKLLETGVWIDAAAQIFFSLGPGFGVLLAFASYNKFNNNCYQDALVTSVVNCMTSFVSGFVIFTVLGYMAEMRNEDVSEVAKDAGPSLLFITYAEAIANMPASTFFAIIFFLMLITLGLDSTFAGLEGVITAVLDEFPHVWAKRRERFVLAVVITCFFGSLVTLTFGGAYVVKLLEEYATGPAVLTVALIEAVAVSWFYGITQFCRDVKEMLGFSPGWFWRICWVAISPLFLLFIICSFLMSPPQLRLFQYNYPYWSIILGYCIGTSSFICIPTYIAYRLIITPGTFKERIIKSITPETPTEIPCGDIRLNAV
Histamine H3, sequence (Q9Y5N1 whole entry): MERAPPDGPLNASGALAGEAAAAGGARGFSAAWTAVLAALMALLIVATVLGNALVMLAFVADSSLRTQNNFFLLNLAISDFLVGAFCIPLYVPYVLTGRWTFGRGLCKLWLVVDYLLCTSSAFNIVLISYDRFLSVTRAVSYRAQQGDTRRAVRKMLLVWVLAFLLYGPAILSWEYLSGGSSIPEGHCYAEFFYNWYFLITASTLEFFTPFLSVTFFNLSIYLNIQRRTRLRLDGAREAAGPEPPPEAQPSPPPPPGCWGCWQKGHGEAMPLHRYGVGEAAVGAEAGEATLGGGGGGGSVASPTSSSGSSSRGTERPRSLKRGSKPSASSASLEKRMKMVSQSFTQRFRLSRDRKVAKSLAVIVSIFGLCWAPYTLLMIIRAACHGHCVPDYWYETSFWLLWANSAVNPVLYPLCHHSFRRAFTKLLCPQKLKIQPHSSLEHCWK
Serotonin 5HT3, sequence (P46098 24-478): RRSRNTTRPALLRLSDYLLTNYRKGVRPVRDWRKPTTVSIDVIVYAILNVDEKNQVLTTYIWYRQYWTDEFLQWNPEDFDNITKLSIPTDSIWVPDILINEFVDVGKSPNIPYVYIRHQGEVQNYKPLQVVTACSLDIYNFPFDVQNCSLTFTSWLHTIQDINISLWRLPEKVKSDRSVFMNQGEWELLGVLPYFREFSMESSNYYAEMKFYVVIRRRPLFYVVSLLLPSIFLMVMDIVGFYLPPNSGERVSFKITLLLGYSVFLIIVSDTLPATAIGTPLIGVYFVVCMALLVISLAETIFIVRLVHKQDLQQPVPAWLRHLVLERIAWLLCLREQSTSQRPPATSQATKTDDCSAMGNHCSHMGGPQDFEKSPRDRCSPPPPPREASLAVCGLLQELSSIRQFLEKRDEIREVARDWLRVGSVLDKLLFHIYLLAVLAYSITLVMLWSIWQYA

With `CN(C)CCCN1c2ccccc2CCc2ccccc21` [Imipramine, reference compound], the “Inhibition (%)” value at Serotonin transporter came out at 100.00%.

As to `COC(=O)[C@H]1[C@H]2C[C@H]3c4[nH]c5ccccc5c4CCN3C[C@H]2CC[C@@H]1O` [Rauwolscine, reference compound], the “Inhibition (%)” value on α2A-Adrenergic and at α2C-Adrenergic was 100.00% throughout.

In the case of `C[C@@H](N)Cc1c[nH]cn1` [(R)(−)-α-Methyl histamine, reference compound], the “Inhibition (%)” value on Histamine H3 turned out to be 98.17%.

For `Clc1ccc(C2CC3CCC2N3)cn1` (racemic) [(±)-Epibatidine, reference compound], the “Inhibition (%)” value in the experiment on Nicotinic stood at 98.46%.

Take `COc1ccc2[nH]cc(CCNC(C)=O)c2c1` [Melatonin, reference compound]: the “Inhibition (%)” value on Melatonin MT1 is 100.00%.

Turning to `O=C(O)/C(=C/c1c(C(=O)O)[nH]c2cc(Cl)cc(Cl)c12)c1ccccc1` [MDL105,519, reference compound], the “Inhibition (%)” value in [1] amounted to 100.00%.

As for `C[C@]12CC[C@@H]3c4ccc(O)cc4CC[C@H]3[C@@H]1CC[C@@H]2O` [β-Estradiol, reference compound], in the experiment with Estrogen, the “Inhibition (%)” value is recorded as 100.00%.

Turning to `CC(C)=CCN1CCC2(C)c3cc(O)ccc3CC1C2C` (single isomer, unassigned; (+)) [(+)-Pentazocine, reference compound], the “Inhibition (%)” value at Sigma σ1 is reported as 100.00%.

For the compound `CN/C(=N/CCSCc1nc[nH]c1C)NC#N` [Cimetidine, reference compound], the “Inhibition (%)” value on Histamine H2 stood at 100.00%.

Turning to `Cc1onc(O)c1C[C@H](N)C(=O)O` [(S)-AMPA, reference compound], in the experiment on Glutamate (AMPA), the “Inhibition (%)” value worked out at 100.00%.

Consider `Ic1ccccc1CN[C@@H]1C2CCN(CC2)[C@@H]1C(c1ccccc1)c1ccccc1` (racemic) [L-703,606, reference compound], for which the “Inhibition (%)” value at Neurokinin NK1 worked out at 94.45%.

Consider `COc1ccc(Cl)cc1C(=O)NCCc1ccc(S(=O)(=O)NC(=O)NC2CCCCC2)cc1` [Glybenclamide, reference compound], for which the “Inhibition (%)” value with K Channel KATP stood at 100.00%.

In the case of `NCc1cc(=O)[nH]o1` [Muscimol, reference compound], the “Inhibition (%)” value with GABA A (Agonist site) was found to be 97.63%.

In the case of (+)-Butaclamol [reference compound], the “Inhibition (%)” value at Dopamine D2 short was found to be 100.00%.

(+)-MK-801 [reference compound]: the “Inhibition (%)” value in experiment [2] was found to be 100.00%.

On to `N[C@@H](CCC(=O)O)C(=O)O` [L-Glutamic acid, reference compound], for which the “Inhibition (%)” value in experiment [3] is 100.00%.

In the case of `O=C(CCCN1CCC(O)(c2ccc(Cl)cc2)CC1)c1ccc(F)cc1` [Haloperidol, reference compound], at Sigma σ2, the “Inhibition (%)” value is 100.00%.

For `CN1[C@@H]2CC[C@H]1C[C@@H](OC(=O)c1c[nH]c3ccccc13)C2` [Tropisetron, reference compound], the “Inhibition (%)” value at Serotonin 5HT3 worked out at 99.80%.

Regarding “Urocortin human (DNPSLSIDLTFHLLRTLLELARTQSQRERAEQNRIIFDSV; ends and bridges not checked; UniProt P55089 83-122, looked up) [reference compound]”, the “Inhibition (%)” value in the experiment with CRF1 came out at 100.00%.

Take `Oc1ccc2c3c1O[C@H]1c4oc5ccccc5c4C[C@@]4(O)[C@@H](C2)N(CC2CC2)CC[C@]314` [Naltriben, reference compound]: at Opiate δ, the “Inhibition (%)” value worked out at 98.32%.

As for `CN1C(=O)CN=C(c2ccccc2)c2cc(Cl)ccc21` [Diazepam, reference compound], the “Inhibition (%)” value with GABA A (BZ central) is reported as 100.00%.

For the compound `O=C(c1ccc(F)cc1)C1CCN(CCn2c(=O)[nH]c3ccccc3c2=O)CC1` [Ketanserin, reference compound], the “Inhibition (%)” value at Serotonin 5HT2A is on record as 99.20%.

`CCCCC/C=C\C[C@@H](O)/C=C/C=C/C=C\[C@@H](O)CCCC(=O)O` [Leukotriene B4, reference compound]: the “Inhibition (%)” value in the experiment on Leukotriene B4 was 98.89%.

`C=C(C)[C@H]1CN[C@H](C(=O)O)[C@H]1CC(=O)O` [Kainic acid, reference compound]: the “Inhibition (%)” value in the experiment with Glutamate (Kainate) is 100.00%.

Turning to `CCCCC/C=C\C\C=C/C=C/C=C/[C@@H](SC[C@H](N)C(=O)NCC(=O)O)[C@@H](O)CCCC(=O)O` [Leukotriene D4, reference compound], the “Inhibition (%)” value in the experiment on Leukotriene D4 came to 100.00%.

As for `CSCC[C@H](NC(=O)[C@H](CC(C)C)NC(=O)CNC(=O)[C@H](Cc1ccccc1)N(C)C(=O)[C@H](Cc1ccccc1)NC(=O)[C@H](CC(=O)O)NC(=O)CCC(=O)O)C(N)=O` [Senktide, reference compound] (Suc-DF[NMeF]GLM-NH2), the “Inhibition (%)” value on Neurokinin NK3 was determined as 98.43%.

On to `CCCCOc1cc(C(=O)NCCN(CC)CC)c2ccccc2n1` [Dibucaine, reference compound], for which the “Inhibition (%)” value with Na channel site 2 was 97.37%.
